Measurements from article PMC8487611 (ACS chemical neuroscience, 2021).

Biological target: α3β4 nicotinic acetylcholine receptor (mouse) (Mus musculus, UniProt Q8R493+Q8R4G9)
Assay: two-electrode voltage clamp of Xenopus oocytes, block of ACh
Type: cell-based

Sequence of α3β4 nicotinic acetylcholine receptor (mouse) (Q8R4G9 26-499): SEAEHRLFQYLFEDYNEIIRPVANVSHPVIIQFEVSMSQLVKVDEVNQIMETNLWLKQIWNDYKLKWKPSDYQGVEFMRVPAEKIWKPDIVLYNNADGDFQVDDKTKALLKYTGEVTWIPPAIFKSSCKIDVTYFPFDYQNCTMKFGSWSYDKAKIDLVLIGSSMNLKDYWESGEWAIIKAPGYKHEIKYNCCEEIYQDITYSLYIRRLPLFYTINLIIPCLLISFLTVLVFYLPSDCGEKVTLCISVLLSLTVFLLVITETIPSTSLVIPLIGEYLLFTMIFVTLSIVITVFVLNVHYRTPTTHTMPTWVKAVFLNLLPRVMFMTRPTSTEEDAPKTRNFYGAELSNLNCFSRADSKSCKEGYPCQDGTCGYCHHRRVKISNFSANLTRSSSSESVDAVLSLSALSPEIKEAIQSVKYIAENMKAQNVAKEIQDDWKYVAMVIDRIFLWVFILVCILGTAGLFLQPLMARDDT
Sequence of α3β4 nicotinic acetylcholine receptor (mouse) (Q8R493 21-495): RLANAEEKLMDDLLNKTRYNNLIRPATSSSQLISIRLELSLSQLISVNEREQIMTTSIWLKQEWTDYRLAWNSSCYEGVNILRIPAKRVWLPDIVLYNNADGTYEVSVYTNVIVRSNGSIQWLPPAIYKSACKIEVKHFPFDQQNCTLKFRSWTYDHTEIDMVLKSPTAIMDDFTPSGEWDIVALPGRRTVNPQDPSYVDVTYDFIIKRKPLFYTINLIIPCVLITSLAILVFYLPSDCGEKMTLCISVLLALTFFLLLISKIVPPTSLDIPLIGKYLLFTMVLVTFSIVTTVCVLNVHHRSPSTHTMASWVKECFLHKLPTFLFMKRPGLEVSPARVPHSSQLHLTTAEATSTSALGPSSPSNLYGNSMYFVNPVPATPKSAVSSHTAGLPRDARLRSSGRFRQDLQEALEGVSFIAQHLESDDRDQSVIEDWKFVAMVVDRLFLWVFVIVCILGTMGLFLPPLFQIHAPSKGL

molleamine C [compound 3] gave an IC50 of 1430 nM.
